The results in this text go back to ChEMBL document CHEMBL5241072, “Overview of piperlongumine analogues and their therapeutic potential” (Eur J Med Chem, 2021).

As a reminder, the IC50 is the midpoint of a concentration-inhibition curve.

The subject of one series is A549. The experiment in a line: Antiproliferative activity against human A549 cells assessed as cell growth inhibition. Format: functional, cell-based.
A further series concerns the target 20S proteasome. The experiment in a line: Inhibition of human 20S proteasome. Format: protein-complex assay.
Series [1] in a line: Cytotoxicity against mouse RAW264.7 cells assessed as cell growth inhibition. It is filed as toxicity, cell-based.
Series [2] has as its system Hepatitis B virus. As to the kind of experiment: Antiviral activity against HBV infected in human HepG2.2.15 cells assessed as reduction in intracellular HBV DNA level. It is filed as functional, organism-based.
The subject of series [3] is Hepatitis B virus. As to the kind of experiment: Antiviral activity against HBV infected in human HepG2.2.15 cells assessed as reduction in extracellular HBV DNA level. It is filed as functional, organism-based.
The species entered for series [4] is Oryctolagus cuniculus. The experiment in a line: Antiplatelet activity in rabbit plasma assessed as inhibition of ADP induced platelet aggregation by microplate reader analysis. Format: functional.
For series [5], the species on record is Oryctolagus cuniculus. The experiment in a line: Antiplatelet activity in rabbit plasma assessed as inhibition of arachidonic acid induced platelet aggregation by microplate reader analysis. It is filed as functional.
A further series concerns NCI-H1703. The experiment in a line: Antiproliferative activity against human NCI-H1703 cells assessed as cell growth inhibition. It is filed as functional, cell-based.
For another series, the system named is HeLa. As to the kind of experiment: Antiproliferative activity against human HeLa cells assessed as cell growth inhibition. It is filed as functional, cell-based.
The species entered for series [6] is Oryctolagus cuniculus. As to the kind of experiment: Antiplatelet activity in rabbit plasma assessed as inhibition of arachidonic acid induced platelet aggregation at 150 uM by aggregometer analysis relative to control. Format: functional. Set-up: scale not given: the % may be the effect or the level left.
A further series relates to NSCLC. The experiment in a line: Cytotoxicity against human NSCLC cells assessed as cell growth inhibition. It is filed as functional, cell-based.
Series [7] is described as follows: Inhibition of TrxR in human MDA-MB-231 cells. It is filed as cell-based.
Series [8] concerns MDA-MB-231. The experiment in a line: Potency index, ratio of piperlongumine IC50 to compound IC50 for inhibition of TrxR in human MDA-MB-231 cells. It is filed as cell-based.
In series [9] the test system is MDA-MB-231. The experiment in a line: Antiproliferative activity against human MDA-MB-231 cells assessed as cell growth inhibition. It is filed as functional, cell-based.
Series [10] relates to MDA-MB-231. The experiment in a line: Antitumor activity against BALB/c mouse xenografted with human MDA-MB-231 cells assessed as tumor growth inhibition at 25 mg/kg, ip measured after 21 days relative to control. Format: functional. The conditions noted are these: MDA-MB-231, 504 h, time 21 day, read-out: TGI. On the technique in general: In xenograft studies the graft and the host belong to different species.

The subject of the next series is PC-12. As to the kind of experiment: Neuroprotective activity against H2O2-induced cytotoxicity in rat PC-12 cells assessed as cell survival rate preincubated for 24 hrs followed by H2O2 stimulation and measured after 24 hrs by MTT assay relative to control. Format: functional. The conditions noted are these: time 48 hrs.
The test system of series [11] is HGC-27. The experiment in a line: Potency index, ratio of piperlongumine IC50 to compound IC50 for antiproliferative activity against human HGC-27 cells. It is filed as functional.
Series [12] concerns HGC-27. As to the kind of experiment: Antiproliferative activity against human HGC-27 cells assessed as cell growth inhibition. It is filed as functional, cell-based.
The test system of series [13] is HGC-27. The experiment in a line: Potency index, ratio of piperlongumine IC50 to compound IC50 for inhibition of TrxR in human HGC-27 cells. It is filed as cell-based.
The nature of series [14]: Inhibition of TrxR in human HGC-27 cells. It is filed as cell-based.
Series [15] has as its system HCT-8. As to the kind of experiment: Antiproliferative activity against human HCT-8 cells assessed as cell growth inhibition in presence of piperlongumine. Format: functional, cell-based.
For series [16], the system named is SF-295. The experiment in a line: Antiproliferative activity against human SF-295 cells assessed as cell growth inhibition. It is filed as functional, cell-based.
The subject of series [17] is SF-295. The experiment in a line: Antiproliferative activity against human SF-295 cells assessed as cell growth inhibition in presence of piperlongumine. Format: functional, cell-based.
Series [18] relates to HL-60. As to the kind of experiment: Antiproliferative activity against human HL-60 cells assessed as cell growth inhibition in presence of piperlongumine. It is filed as functional, cell-based.
The test system of series [19] is HCT-8. The experiment in a line: Antiproliferative activity against human HCT-8 cells assessed as cell growth inhibition. Format: functional, cell-based.
Series [20] deals with MDA-MB-435. As to the kind of experiment: Antiproliferative activity against human MDA-MB-435 cells assessed as cell growth inhibition. It is filed as functional, cell-based.
For series [21], the system named is HL-60. As to the kind of experiment: Antiproliferative activity against human HL-60 cells assessed as cell growth inhibition. It is filed as functional, cell-based.
Series [22] relates to MDA-MB-435. The experiment in a line: Antiproliferative activity against human MDA-MB-435 cells assessed as cell growth inhibition in presence of piperlongumine. Format: functional, cell-based.
The subject of a further series is MKN-45. The experiment in a line: Antiproliferative activity against human MKN-45 cells assessed as cell growth inhibition. Format: functional, cell-based.
In a further series the test system is HT-29. As to the kind of experiment: Antiproliferative activity against human HT-29 cells assessed as cell growth inhibition. Format: functional, cell-based.
A further series has as its system HCT-116. The experiment in a line: Antiproliferative activity against human HCT-116 cells assessed as cell growth inhibition. It is filed as functional, cell-based.
In a further series the test system is 8-MG-BA. As to the kind of experiment: Antiproliferative activity against human 8-MG-BA cells assessed as cell growth inhibition. It is filed as functional, cell-based.
A further series concerns Jurkat. As to the kind of experiment: Antiproliferative activity against human Jurkat cells assessed as cell growth inhibition. It is filed as functional, cell-based.
For a further series, the system named is DU-145. As to the kind of experiment: Antiproliferative activity against human DU-145 cells assessed as cell growth inhibition. Format: functional, cell-based.
Series [23] is described as follows: Antiproliferative activity against human NCI-H660 cells assessed as cell growth inhibition. It is filed as functional, cell-based.
The subject of a further series is K562. As to the kind of experiment: Antiproliferative activity against human K562 cells assessed as cell growth inhibition. Format: functional, cell-based.
In another series the test system is AGS. The experiment in a line: Antiproliferative activity against human AGS cells assessed as cell growth inhibition. Format: functional, cell-based.
For a further series, the system named is LN-229. The experiment in a line: Antiproliferative activity against human LN-229 cells assessed as cell growth inhibition. Format: functional, cell-based.
Another series concerns MCF7. The experiment in a line: Antiproliferative activity against human MCF7 cells assessed as cell growth inhibition. Format: functional, cell-based.
Series [24] is described as follows: Antiproliferative activity against human U87 cells assessed as cell growth inhibition. Format: functional, cell-based, U-87MG ATCC. The conditions noted are these: U-87 MG.
The nature of series [25]: Antiproliferative activity against human A875 cells assessed as cell growth inhibition. It is filed as functional, cell-based.
For the next series, the system named is P388. The experiment in a line: Antiproliferative activity against mouse P388 cells assessed as cell growth inhibition. It is filed as functional, cell-based.
The subject of a further series is KB. The experiment in a line: Antiproliferative activity against human KB cells assessed as cell growth inhibition. Format: functional.
For another series, the system named is PC-3. The experiment in a line: Antiproliferative activity against human PC-3 cells assessed as cell growth inhibition. It is filed as functional, cell-based.
In a further series the test system is CCRF-CEM. The experiment in a line: Antiproliferative activity against human CEM cells assessed as cell growth inhibition. Format: functional, cell-based.
Series [26] in a line: Antiproliferative activity against human OC2 cells assessed as cell growth inhibition. Format: functional, cell-based.
A further series deals with A-375. The experiment in a line: Antiproliferative activity against human A-375 cells assessed as cell growth inhibition. It is filed as functional, cell-based.
Series [27] can be described thus: Antiproliferative activity against human OCSL cell assessed as cell growth inhibition. It is filed as functional, cell-based.
In a further series the test system is MOLT-4. The experiment in a line: Antiproliferative activity against human MOLT-4 cells assessed as cell growth inhibition. Format: functional, cell-based.

As for `COc1cc(/C=C/C(=O)N2CCC=C(Cl)C2=O)cc(OC)c1OC`, the IC50 in the series with A549 amounted to 4.14 µM.

With `C=CC(=O)NC(=O)/C=C/c1cc(OC)c(OC)c(OC)c1`, the IC50 against 20S proteasome is 2.6 µM.

Consider `COc1cc(/C=C/C(=O)C2CCC=CC2=O)cc(OC)c1OC` (configuration not stated), for which, in series [1], the IC50 came out at 6 µM.

`CC(=O)Nc1ccc(-c2cc(C)c(=O)n(Cc3ccc(Cl)cc3)n2)cc1`: the IC50 in the series with Hepatitis B virus [2] worked out at 3000 nM; in the series on Hepatitis B virus [3], 1500 nM.

In the case of `O=C1C=CCCN1C(=O)/C=C/c1ccc2ccccc2n1`, the IC50 in the series filed under Oryctolagus cuniculus [4] worked out at 0.403 mM; in the series filed under Oryctolagus cuniculus [5], 130 nM.

`O=C(/C=C/c1ccc2ccccc2n1)N1CCC=C(Cl)C1=O`: the IC50 in the series listed under Oryctolagus cuniculus [4] turned out to be 3.15 mM; in the series listed under Oryctolagus cuniculus [5] it was 108 nM.

For the compound `COc1cc(/C=C/C(=O)N2CCC=C(C#CC3CC3)C2=O)cc(OC)c1OC`, the IC50 is 700 nM in the series with NCI-H1703 and 1300 nM with HeLa.

As for `O=C(/C=C/c1cnccn1)N1CCC=C(Cl)C1=O`, in the series listed under Oryctolagus cuniculus [6], the Activity is 100%.

Turning to `COc1cc(/C=C2\CN(C=O)C/C(=C\c3cc(OC)c(OC)c(OC)c3)C2=O)cc(OC)c1OC`, the 50% inhibitory concentration (IC50) in the series with NSCLC stood at 0.6 µM.

As for `O=C1C=CCC/C1=C\c1ccc(Oc2ccc(/C=C3\CCC=CC3=O)cc2)cc1`, the IC50 in [7] is 160 nM; in the series with MDA-MB-231 [9] it was 630 nM. Also, the Ratio IC50 in the series on MDA-MB-231 [8] turned out to be 10. In the series on MDA-MB-231 [10], the inhibition in vivo at 25 mg/kg was 67%.

As to `COc1cc(OC)c(/C=C2\CC/C(=C\c3cc(OC)c(OC)c(OC)c3)C2=O)c(OC)c1`, in the series with PC-12, the Survival stood at 80%.

As to `COCCOCCOc1ccc(/C=C2\CCC=CC2=O)cc1OC`, the “Ratio IC50” value came to 10 in the series with HGC-27 [11] and 12 with HGC-27 [13]. For the same compound, the IC50 with HGC-27 [12] came to 0.76 µM; in series [14] it was 150 nM.

For `O=c1[nH]cc(F)c(=O)[nH]1` [FLUOROURACIL], the IC50 with HCT-8 [15] stood at 4.7 µM; in the series on SF-295 [16], 2330 nM; in the series with SF-295 [17], 490 nM; with HL-60 [18], 38.1 µM; in the series on HCT-8 [19], 11.2 µM; with MDA-MB-435 [20] it was 9.19 µM. The IC50 with HL-60 [21] turned out to be 84.7 µM; in the series with MDA-MB-435 [22] it was 1950 nM.

For `COc1cc(/C=C/C(=O)N2CCC=CC2=O)cc(OC)c1OC` [PIPLARTINE], the IC50 in series [7] turned out to be 1520 nM; in the series with MKN-45, 20 µM; with HT-29, 1400 nM; in the series with A549 it was 10.2 µM; with HCT-116, 13.9 µM; with 8-MG-BA, 10 µM. For the same compound, the IC50 stood at 5.3 µM in the series on Jurkat; 7.53 µM with HGC-27 [12]; 3.4 µM with DU-145; 400 nM in series [23]; 5.7 µM with K562; 20 µM in the series with AGS. Besides, the IC50 in the series with LN-229 came out at 10 µM; in the series filed under Oryctolagus cuniculus [4], 6.71 mM; in the series on MCF7 it was 25 µM; at 20S proteasome, 15 µM; in [24] it was 10 µM; with MDA-MB-231 [9] it was 1720 nM. In addition, the IC50 amounted to 2500 nM in [25]; 9.2 µM in the series with NSCLC; 2800 nM with P388; 5.6 µM in the series with KB; 2.2 µM in the series with HCT-8 [19]; 20800 nM in the series listed under Oryctolagus cuniculus [5]. Besides, the concentration for half-maximal inhibition (IC50) in the series with HL-60 [21] was 5.3 µM; in the series on PC-3, 4.9 µM; in the series on CCRF-CEM, 4.4 µM; in series [26], 7.4 µM; in the series with A-375 it was 2500 nM; in [27] it was 11.3 µM. For the same compound, the IC50 with MOLT-4 was determined as 1700 nM. The Activity in the series filed under Oryctolagus cuniculus [6] came to 76.4%.
